Experimental data published in patent publication US7135466B2 (Kirin Beer Kabushiki Kaisha, priority 1999, dated 2006).
Read-outs that look alike come from different tables or passages of the source.

Tests used:
PDGF-Ra = molecular target: T1, PDGF-Ra (Homo sapiens, UniProt P16234); assay: Inhibitory activity against PDGF-Ra phosphorylation by PDGF-AA stimulation using G292; format: cell-based; conditions: for IC50: > means inhibition at indicated concentration not more than 50%, < and << not less than 50%, read-out: PDGF (E) IC50; for inhibition at 0.1 µM: G292, figure within parentheses in >100( ), at 100 nM, read-out: PDGF (E) inhibition (%) at 100 nM
T1 construct: host or cells: G-292 human osteosarcoma cells
T1 sequence (P16234 24-1089): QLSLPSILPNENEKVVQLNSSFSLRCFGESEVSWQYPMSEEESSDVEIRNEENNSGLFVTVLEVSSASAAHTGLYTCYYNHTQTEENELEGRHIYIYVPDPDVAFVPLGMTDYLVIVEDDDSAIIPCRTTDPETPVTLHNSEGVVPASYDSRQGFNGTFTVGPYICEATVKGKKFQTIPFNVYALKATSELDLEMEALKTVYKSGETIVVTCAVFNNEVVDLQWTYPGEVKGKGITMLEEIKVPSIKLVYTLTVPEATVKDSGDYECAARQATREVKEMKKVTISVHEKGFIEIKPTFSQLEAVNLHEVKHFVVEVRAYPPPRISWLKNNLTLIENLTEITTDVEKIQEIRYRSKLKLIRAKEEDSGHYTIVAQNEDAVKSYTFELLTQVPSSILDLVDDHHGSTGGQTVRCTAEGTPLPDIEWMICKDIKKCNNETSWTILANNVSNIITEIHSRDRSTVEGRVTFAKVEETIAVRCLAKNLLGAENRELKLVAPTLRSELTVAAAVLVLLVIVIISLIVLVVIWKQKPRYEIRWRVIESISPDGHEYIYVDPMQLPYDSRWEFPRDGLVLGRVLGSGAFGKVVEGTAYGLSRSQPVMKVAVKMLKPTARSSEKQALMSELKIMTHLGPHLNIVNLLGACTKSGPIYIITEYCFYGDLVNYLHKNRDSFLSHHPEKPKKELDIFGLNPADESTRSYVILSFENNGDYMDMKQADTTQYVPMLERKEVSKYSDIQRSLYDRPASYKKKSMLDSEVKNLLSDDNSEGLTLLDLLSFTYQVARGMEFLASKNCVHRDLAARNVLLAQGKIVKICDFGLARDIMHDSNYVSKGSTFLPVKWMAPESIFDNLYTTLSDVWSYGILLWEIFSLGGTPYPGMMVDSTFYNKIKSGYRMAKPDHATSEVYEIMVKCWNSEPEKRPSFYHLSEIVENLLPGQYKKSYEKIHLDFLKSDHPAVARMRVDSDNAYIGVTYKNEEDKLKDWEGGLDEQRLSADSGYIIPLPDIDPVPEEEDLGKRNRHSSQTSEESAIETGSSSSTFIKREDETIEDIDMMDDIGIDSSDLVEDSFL
Summary of the method: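 Human osteosarcoma G-292, 0.1% FBS o/n; cpd (DMSO) 1 h 37 °C; PDGF-AA 50 ng/ml 5 min; lyse 20 min RT; PY-20 capture 4 °C o/n; anti-PDGF-Ra + HRP-GAR; OD450.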

c-kit = molecular target: T2, c-kit (Homo sapiens, UniProt P10721); assay: Inhibitory activity against c-kit autophosphorylation (MO7e cells, h-SCF); format: cell-based; conditions: for IC50: MO7e cells, read-out: c-kit IC50; for inhibition at 1 µM: Mo7e, at 1000 nM
T2 construct: MO7e (human megakaryocytic leukemia cell line) which had been arrested for 20 hr; endogenous in cells; host or cells: MO7e human megakaryocytic leukemia cell line
T2 sequence (P10721 26-976): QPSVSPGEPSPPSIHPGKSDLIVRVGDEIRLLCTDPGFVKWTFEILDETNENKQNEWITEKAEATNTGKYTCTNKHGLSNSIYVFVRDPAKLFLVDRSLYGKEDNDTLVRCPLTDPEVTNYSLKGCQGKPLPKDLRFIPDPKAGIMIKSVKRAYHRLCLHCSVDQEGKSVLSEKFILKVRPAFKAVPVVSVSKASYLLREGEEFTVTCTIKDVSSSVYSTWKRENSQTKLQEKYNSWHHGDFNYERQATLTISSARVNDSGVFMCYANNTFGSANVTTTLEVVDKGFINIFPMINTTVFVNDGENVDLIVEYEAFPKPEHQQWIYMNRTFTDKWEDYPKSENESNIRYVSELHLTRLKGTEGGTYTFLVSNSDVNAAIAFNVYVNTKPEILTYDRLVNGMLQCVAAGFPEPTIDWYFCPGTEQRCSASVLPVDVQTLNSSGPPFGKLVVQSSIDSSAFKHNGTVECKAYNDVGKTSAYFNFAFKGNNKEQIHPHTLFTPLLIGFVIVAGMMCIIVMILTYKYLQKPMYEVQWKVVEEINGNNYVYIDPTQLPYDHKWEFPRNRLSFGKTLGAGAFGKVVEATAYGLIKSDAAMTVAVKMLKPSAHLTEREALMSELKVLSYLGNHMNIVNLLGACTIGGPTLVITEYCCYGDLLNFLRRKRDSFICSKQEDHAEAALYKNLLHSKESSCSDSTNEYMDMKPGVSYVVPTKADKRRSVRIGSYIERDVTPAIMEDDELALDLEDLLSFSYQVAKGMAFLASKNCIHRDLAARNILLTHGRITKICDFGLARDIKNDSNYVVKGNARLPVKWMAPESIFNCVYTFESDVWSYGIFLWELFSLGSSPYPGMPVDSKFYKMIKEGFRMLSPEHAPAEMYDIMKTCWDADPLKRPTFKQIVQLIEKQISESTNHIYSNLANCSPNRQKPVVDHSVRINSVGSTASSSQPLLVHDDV
Summary of the method: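 Phospho-c-kit ELISA: plate-bound PY-20 anti-phosphotyrosine captures lysate, anti-c-kit plus peroxidase-labelled secondary antibody detect, read at 450 nm. Lysates come from 20 hr-arrested MO7e cells given compound for 1 hr before a 5 min 50 ng/ml h-SCF stimulus.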

[1] = figure within parentheses in −( ) or >1000( )

Row | IC50 (PDGF-Ra; Pharmacological Test Example 1) [nM] | IC50 (c-kit; h-SCF 50 ng/ml) [nM] | IC50 (PDGF-Ra) [nM] | IC50 (c-kit; 50 ng/ml h-SCF) [nM] | Molecule | further results
1 | 20 | 105 |  |  | COc1cc2nccc(Oc3cc(C)c(NC(=O)OCC4CCC4)cc3C)c2cc1OC [Example 386, Cyclobutylmethyl N-{4-[(6,7-dimethoxy-4-quinolyl)oxy]-2,5-dimethylphenyl}carbamate] | 
2 | 14 |  |  |  | COc1cc2ncnc(Oc3ccc(NC(=O)OC(C)c4cccc(C(F)(F)F)c4)c(Cl)c3)c2cc1OC (stereo not shown) [Example 91, 1-[3-(Trifluoromethyl)phenyl]ethyl N-{2-chloro-4-[(6,7-dimethoxy-4-quinazolinyl)oxy]phenyl}carbamate] | inhibition at 1 µM (c-kit; figure in parentheses in −( )): 20%
3 | < 10 | 29 |  |  | COc1cc2ncnc(Oc3ccc(NC(=O)OC4CCCCC4)cc3)c2cc1OC [Example 312, Cyclohexyl N-{4-[(6,7-dimethoxy-4-quinazolinyl)oxy]phenyl}carbamate] | 
4 |  |  | 11 | < 30 | COc1cc2nccc(Oc3ccc(NC(=O)OCc4ccncc4)cc3)c2cc1OC [Example 433, 4-Pyridylmethyl N-{4-[(6,7-dimethoxy-4-quinolyl)oxy]phenyl}carbamate] | 
5 | 17 | 74 |  |  | COc1cc2nccc(Oc3ccc(NC(=O)OCCSc4ccc(C)cc4)c(C)c3C)c2cc1OC [Example 138, 3-[(4-Methylphenyl)sulfanyl]ethyl N-{4-[(6,7-dimethoxy-4-quinolyl)oxy]-2,3-dimethylphenyl}carbamate] | 
6 |  |  | 23 | 173 | COc1cc2ncnc(Oc3ccc(NC(=O)NC4CCN(Cc5ccccc5C)C4)c([N+](=O)[O-])c3)c2cc1OC (stereo not shown) [Example 570, N-{4-[(6,7-Dimethoxy-4-quinazolinyl)oxy]-2-nitrophenyl}-N′-[1-(2-methylbenzyl)tetrahydro-1H-3-pyrrolyl]urea] | 
7 |  |  | > 100 | 768 | COc1cc2nccc(Oc3cc(C)c(NC(=S)NCCN(C)C)cc3C)c2cc1OC [Example 538, N-{4-[(6,7-Dimethoxy-4-quinolyl)oxy]-2,5-dimethylphenyl}-N′-(2-dimethylaminoethyl)thiourea] | inhibition at 0.1 µM (PDGF-Ra): 22%
8 |  |  | > 100 | 464 | COc1cc2nccc(Oc3cc(C)c(NC(=O)OCCCN4CCN(C)CC4)cc3C)c2cc1OC [Example 425, 3-(4-Methylpiperazino)propyl N-{4-[(6,7-dimethoxy-4-quinolyl)oxy]-2,5-dimethylphenyl}carbamate] | inhibition at 0.1 µM (PDGF-Ra): 5%
9 | 38 |  |  |  | COc1ccc(OC)c(COC(=O)Nc2ccc(Oc3ncnc4cc(OC)c(OC)cc34)cc2Cl)c1 [Example 71, 2,5-Dimethoxybenzyl N-{2-chloro-4-[(6,7-dimethoxy-4-quinazolinyl)oxy]phenyl}carbamate] | inhibition at 1 µM (c-kit; figure in parentheses in −( )): 34%
10 |  |  | < 10 |  | COc1ccccc1CCC(=O)NC(=S)Nc1ccc(Oc2ncnc3cc(OC)c(OC)cc23)cc1 [Example 1141, N-{4-[(6,7-Dimethoxy-4-quinazolinyl)oxy]phenyl}-N′-[3-(2-methoxyphenyl)propanoyl]thiourea] | IC50 (c-kit; h-SCF stimulation): 416 nM
11 | < 10 | 45 |  |  | COc1cc2nccc(Oc3ccc(NC(=O)OCC4CC4)cc3)c2cc1OC [Example 380, Cyclopropylmethyl N-{4-[(6,7-dimethoxy-4-quinolyl)oxy]phenyl}carbamate] | 
12 |  |  | 26 | 392 | C#CCC(CC)OC(=O)Nc1cc(C)c(Oc2ccnc3cc(OC)c(OC)cc23)cc1C (stereo not shown) [Example 409, 1-Ethyl-3-butynyl N-{4-[(6,7-dimethoxy-4-quinolyl)oxy]-2,5-dimethylphenyl}carbamate] | 
13 |  |  | 74 | 369 | COc1cc2ncnc(Oc3ccc(NC(=O)OCC4CCCCCC4)c([N+](=O)[O-])c3)c2cc1OC [Example 506, Cycloheptylmethyl N-{4-[(6,7-dimethoxy-4-quinazolinyl)oxy]-2-nitrophenyl}carbamate] | 
14 |  |  | 31 | 394 | N-{4-[(6,7-Dimethoxy-4-quinolyl)oxy]-2-chlorophenyl}-N′-[4-(N-benzyl)piperidinyl]urea [Example 605] | 
15 |  |  | > 100 |  | CCCC(CCN1CCN(C)CC1)OC(=O)Nc1ccc(Oc2ncnc3cc(OC)c(OC)cc23)cc1 (stereo not shown) [Example 452, 1-[2-(4-Methylpiperazino)ethyl]butyl N-{4-[(6,7-dimethoxy-4-quinazolinyl)oxy]phenyl}carbamate] | inhibition at 0.1 µM (PDGF-Ra): 31%; inhibition at 1 µM (c-kit; [1]): 37%
16 | 16 | 253 |  |  | COc1cc2nccc(Oc3ccc(NC(=O)OCCc4cccc(C(F)(F)F)c4)c(C)c3C)c2cc1OC [Example 83, 3-(Trifluoromethyl)phenethyl N-{4-[(6,7-dimethoxy-4-quinolyl)oxy]-2,3-dimethylphenyl]carbamate] | 
17 |  |  | > 100 |  | COc1cc2ncnc(Oc3ccc(NC(=S)NCCCN4CCCC4)cc3)c2cc1OC [Example 537, N-{4-[(6,7-Dimethoxy-4-quinazolinyl)oxy]phenyl}-N′-[3-(1-pyrrolidinyl)propyl]thiourea] | inhibition at 0.1 µM (PDGF-Ra): 34%; inhibition at 1 µM (c-kit; [1]): 34%
18 | 8 | < 30 |  |  | CCCOC(=O)Nc1ccc(Oc2ccnc3cc(OC)c(OC)cc23)c(C)c1C [Example 215, Propyl N-{4-[(6,7-Dimethoxy-4-quinolin)oxy]-2,3-dimethylphenyl}carbamate] | 
19 | 19 | 86 |  |  | COc1cc2nccc(Oc3ccc(NC(=O)OCC4CCCC4)c(C)c3C)c2cc1OC [Example 396, Cyclopentylmethyl N-{4-[(6,7-dimethoxy-4-quinolyl)oxy]-2,3-dimethylphenyl}carbamate] | 
20 |  |  | 14 |  | COc1cc2nccc(Oc3ccc(NC(=S)NC(=O)c4ccc5c(c4)OCO5)cc3)c2cc1OC [Example 989, N-(1,3-Benzodioxol-5-ylcarbonyl)-N′-{4-[(6,7-dimethoxy-4-quinolyl)oxy]phenyl}thiourea] | IC50 (c-kit; h-SCF stimulation): 425 nM
21 | < 10 | 82 |  |  | COc1ccccc1COC(=O)Nc1ccc(Oc2ncnc3cc(OC)c(OC)cc23)cc1 [Example 315, 2-Methoxybenzyl N-{4-[(6,7-dimethoxy-4-quinazolinyl)oxy]phenyl}carbamate] | 
22 |  |  | 14 |  | COc1cc2nccc(Oc3ccc(NC(=S)NC(=O)N4CCCC4)cc3Cl)c2cc1OC [Example 1051, N-{3-Chloro-4-[(6,7-dimethoxy-4-quinolyl)oxy]phenyl}-N′-tetrahydro-1H-1-pyrrolylcarbonylthiourea] | IC50 (c-kit; h-SCF stimulation): 418 nM
23 |  |  | > 100 |  | COc1cc2ncnc(Oc3ccc(NC(=O)OC4CCN(C)CC4)cc3)c2cc1OC [Example 469, 1-Methyl-4-piperidyl N-{4-[(6,7-dimethoxy-4-quinazolinyl)oxy]phenyl}carbamate] | inhibition at 0.1 µM (PDGF-Ra): 0%; inhibition at 1 µM (c-kit; [1]): 28%
24 |  |  | 15 | 82 | CCN(CCNC(=O)Nc1ccc(Oc2ccnc3cc(OC)c(OC)cc23)cc1OC)c1cccc(C)c1 [Example 670, N-{4-[(6,7-Dimethoxy-4-quinolyl)oxy]-2-methoxyphenyl}-N′-[2-(ethyl-3-methylanilino)ethyl]urea] | 
25 | 28 | 274 |  |  | CCC(CC)OC(=O)Nc1cc(C)c(Oc2ccnc3cc(OC)c(OC)cc23)cc1C [Example 359, 1-Ethylpropyl N-{4-[(6,7-dimethoxy-4-quinolyl)oxy]-2,5-dimethylphenyl}carbamate] | 
